The text below walks through data of a melting point compilation (Tetko et al.; mined from patent text by program, amines drawn as free bases though some values may be those of a salt).

Structures are written as SMILES.

As a reminder, the melting point is the temperature, or range, at which the solid turns liquid.

`Cc1nc(C(=O)NC(C)(CO[N+](=O)[O-])CO[N+](=O)[O-])cs1` gave a melting point of 78 to 81 °C.
Under `CNC(=O)c1cc(OC)c(-c2ccc(C[C@H](NC(=O)c3c(Cl)cccc3Cl)C(=O)O)cc2)c(OC)c1` stands 251 to 252 °C; under `CNc1nc(N=[N+]=[N-])ncc1C#N`, 225 to 230 °C; under `Cc1oc(-c2ccccc2)nc1COc1ccc(CCCCc2nnn[nH]2)cn1`, 104 to 105 °C.
The same measure for `CC1CCN(c2ccccc2C(C)C(C(N)=O)c2ccc(C(=O)O)cc2)CC1` (stereo unspecified): 173 to 175 °C.
Consider `CC(C)NC(=O)c1cccc(I)c1C(=O)Nc1ccc(OCC(F)(F)F)nc1`, for which the melting point was in the range of 200 to 203 °C.
On to `Clc1cccnc1-c1ccc2[nH]nc(Nc3ccccn3)c2c1`, for which the melting point came out at 164 °C.
For the compound `CS(=O)(=O)c1ccc(-n2nc(C(F)(F)F)cc2-c2ccc(-c3nccs3)cc2)cc1`, the melting point was 206 to 207 °C.
Under `CC(=O)CCSc1cc(C(C)(C)C)c(O)c(C(C)(C)C)c1` stands 79 to 81 °C.
Consider `COc1cc(Nc2c(C#N)cnc3cc(-c4cc5ccccc5o4)sc23)c(Cl)cc1Cl`, for which the melting point fell in the range of 281 to 282 °C.
With `CCCCOC(=O)COc1ccc(C(=O)Nc2cccc(Cl)c2Cl)cc1`, the melting point was in the range of 132 to 136 °C.
As for `COc1ccc(C)cc1C(CCO)c1ccccc1` (stereo unspecified), the melting point worked out at 64 °C.
The same measure for `O=[N+]([O-])c1cc(Cl)ccc1I(Cl)Cl`: 53 to 60 °C; for `Cn1cc(C(O)(c2ccc3c(cnn3C(=O)NC3CC3)c2)C(F)(F)F)c2ccccc21` (stereo unspecified): 116 to 118 °C; for `O=C(C=Cc1ccccc1)Oc1ccc2ccccc2c1`: 99 to 101 °C.
The same measure for `CN(C)CCC(=O)Nc1ccc2[nH]c3ccc(NC(=O)CCN(C)C)cc3c(=O)c2c1`: > 320 °C; for `O=C(O)c1cncc(-c2cnc3c(c2)N(Cc2cc(F)ccc2F)CCN3)c1`: 255 to 260 °C; for `Cc1ccccc1C(=NC(=Nc1ccccc1)C1(C)CCCCC1)Nc1ccc(F)cc1`: 210 to 211 °C.
Under `CCCCOCCOCCOc1ccc(-c2ccc(C(=O)O)cc2)cc1` stands 174 to 176 °C; under `CCC(C)(C)c1ccc(OCCCCSC2C(=O)N(c3c(Cl)cc(Cl)cc3Cl)N=C2Nc2ccc(Cl)cc2Cl)c(C(C)(C)CC)c1` (stereo unspecified), 142 to 144 °C.
`O=C(O)CCn1cnc2c(Cl)ncnc21` came in with a melting point of 163 to 165 °C.
As to `CN1CCOc2c(C(=O)O)cc(Cl)cc21`, the melting point was in the range of 202 to 204 °C.
As for `C[C@H](NC(=O)Cc1ccc(F)cc1)C(=O)N[C@@H]1C(=O)Nc2ccccc2O[C@@H]1c1ccccc1`, the melting point was in the range of 130 to 140 °C.
The same measure for `OC(Cn1cncn1)(c1ccc(Cl)cc1)C(F)(F)F` (stereo unspecified): 117 to 118 °C; for `CCCCCCC(C)Oc1cc(O)c2c(C)c(CCC(=O)OCC)c(=O)oc2c1` (stereo unspecified): 116 to 117 °C; for `CCCCc1cn(CC2OC(n3cnc4c(NCc5ccc(OC)cc5)ncnc43)C(O)C2O)nn1` (stereo unspecified): 105 °C.
`CC(=O)SC(CC(=O)c1ccc(C)cc1)C(=O)O` (stereo unspecified): the melting point is 81 to 85 °C.
The compound `COC(=O)CCCc1c(-c2ccc(F)cc2)[nH]c2ccc(-c3ccc(O)cc3)cc12` had a melting point of 141 to 143 °C.
With `CCOC(=O)C(=CN(C)C)C(=O)c1cc(F)c(Cl)cc1Cl`, the melting point is 94 to 95 °C.
Under `COc1ccc(CS(=O)(=O)Cc2ccc(OC)cc2)cc1` stands 108 to 123 °C; under `O=C(C=Cc1cccc(S(=O)(=O)NCc2cccc3ccccc23)c1)NO`, 177 °C.
The same measure for `N#CCCN1CCOC(c2ccccc2)(c2ccccc2)CC1`: 106 to 107 °C; for `O=[N+]([O-])c1cccc(C(Cl)=NN=C(Cl)c2ccc(C(F)(F)F)cc2)c1`: 78 to 80 °C; for `NC(=O)c1ccc(CCCNCC(O)c2ccccc2)cc1` (stereo unspecified): 106 to 108 °C.
The compound `O=C(O)COc1cccc(CCc2nc(-c3ccccc3)c(-c3ccccc3)[nH]2)c1` showed a melting point of 244 to 246 °C.
Under `CCCN1CCN(c2cc3ccccc3c(=O)[nH]2)CC1CO` (stereo unspecified) stands 152 to 154 °C; under `CCCc1nc2ccccc2c(C(=O)O)c1Oc1ccc(-c2ccccc2-c2nnn(C(c3ccccc3)(c3ccccc3)c3ccccc3)n2)cc1`, 167 to 170 °C; under `O=C(O)c1ccc(CSc2nnc(S)s2)cc1`, 230 to 232 °C.
Under `COc1ccc(Nc2nc(O)nc(NC3CCCCCC3)n2)cc1Cl` stands > 310 °C.
On to `O=C(O)c1ccnc(-c2ccc3c(c2)C(c2ccc(Cl)cc2Cl)CC3)c1` (stereo unspecified), for which the melting point is 205 to 206 °C.
Turning to `O=[N+]([O-])c1ccc(Cl)c(NC(=S)NCCCO)c1`, the melting point came out at 127 °C.
Consider `CSc1ccc(Cc2sc(NC(C)=O)nc2CCc2ccc(NC(=N)N)cc2)cc1`, for which the melting point was 160 to 161 °C.
Under `CCOC(=O)c1cnc2nc(SCc3ccccc3)nn2c1C` stands 98 to 99 °C; under `C=C(C)Cc1cccc(C(=O)O)c1S`, 89 to 92 °C.
`CC(C)(C)C(=O)Nc1cnc(C(=O)CO)cn1` gave a melting point of 169 to 172 °C.
The same measure for `CC(C)(C)OC(=O)N1CCC(c2nc3cc(-c4ccc(S(C)(=O)=O)cc4F)ccc3o2)CC1`: 144 to 147 °C.
Under `CCc1nc(NC(=O)c2cnn3c(C(F)F)cc(-c4ccc(C(F)(F)F)cc4)nc23)sc1S(=O)(=O)N1CCC(O)C1` (racemic) stands 286 °C.
The same measure for `CCOC(=O)C1C(=O)N(CC)c2cc3cc(C)oc3cc21` (stereo unspecified): 82 to 90 °C; for `C=CCONC(=O)c1nc(-c2ccc(C#N)cc2)cc(N)c1Cl`: 218 to 221 °C.
The compound `O=C1c2cccnc2-c2cccnc21` registered a melting point of 158 to 159 °C.
For the compound `COC(=O)C1c2ccccc2N(C)c2ccc(Cl)cc21` (stereo unspecified), the melting point turned out to be 166 °C.
The same measure for `CC(C)c1cccc(C(C)C)c1NC(=O)NCC1(c2ccc(Cl)cc2)CCCC1`: 189 to 192 °C.
The same measure for `Cc1nnsc1C(=O)Nc1ccc(-n2nc(C(F)(F)F)cc2C2CC2)nc1`: 170 to 172 °C; for `N#Cc1nn(-c2c(Cl)cc(C(F)(F)F)cc2Cl)c(Br)c1[N+](=O)[O-]`: 147 to 150 °C; for `COC(=O)[C@@H](Cc1c[nH]c2ccccc12)NS(=O)(=O)c1ccc(OC)cc1`: 120 to 122 °C.
The same measure for `Nc1ccc(S(=O)C2=CCCCC2)cc1[N+](=O)[O-]` (stereo unspecified): 139 to 140 °C; for `Cc1nc(N2CCOCC2)sc1C`: 122 to 123 °C; for `CCOC(=O)c1cncc(C#N)c1`: 58 to 59 °C.
The compound `CCCOc1nc(N[C@@H](C)Cc2ccccc2)c2cnn(-c3ccccc3)c2n1` displayed a melting point of 134 to 136 °C.
With `CCCCNC(=O)C1Cc2c([nH]c3ccccc23)C(c2ccc3c(c2)OCO3)N1C(=O)C=Cc1ccccc1` (stereo unspecified), the melting point was in the range of 114 to 117 °C.
Take `CCCNc1ccc(-c2nc(=O)c3ccccc3s2)cn1`: the melting point was 210 to 211 °C.
The same measure for `COc1cc(Cl)cc(C)c1Nc1nc2c(Cl)ccc(C(O)(C(C)(C)C)C(C)(C)C)c2n1C`: 246 to 248 °C; for `CN(CCNCc1ccccc1)Cc1ccccc1`: 83 to 84 °C.
The same measure for `CN(C)CCCOc1ccc(-c2nnc(CSCCOc3ccccc3)n2Cc2ccccc2)cc1`: 88 to 92 °C.
The same measure for `CC(=CC(=O)O)c1cccc(-c2cc3c(cc2C)C(C)(C)CCC3(C)C)c1`: 89 to 90 °C.
`NS(=O)(=O)c1cc(C(=O)O)cc(OCc2ccccc2)c1-c1ccccc1` registered a melting point of 199 to 200 °C.
Under `CCCCN(Cc1ccc(-c2ccccc2C#N)cc1)C(=O)Cc1ccccc1C(=O)O` stands 137 to 139 °C; under `CN(CCCOc1ccc(OC(F)(F)F)cc1)C1CCN(c2ccc(OC[C@@]3(C)Cn4cc([N+](=O)[O-])nc4O3)cc2)CC1`, 167 to 170 °C; under `O=[N+]([O-])c1ccc2ncnc(Nc3cccc(Br)c3)c2c1`, 267 to 270 °C.
The same measure for `CC(=O)c1c(-c2ccccc2)sc(-c2ccncc2)c1C`: 111 to 112 °C.
`ON=Cc1ccc(-c2ccc(O)cc2)c(Cl)c1Cl` had a melting point of 208 to 210 °C.
In turn, `COC(=O)CC(=O)c1cc(F)c(F)c(F)c1F` displayed a melting point of 68 to 72 °C.
In the case of `Fc1ccc2occ(CCN3CCN(c4cccc5cccnc45)CC3)c2c1`, the melting point was found to be 54 °C.
`COc1cc(N)c(Cl)cc1C(=O)NCC1CCN(CCS(=O)(=O)CCc2ccccc2)CC1` showed a melting point of 161 to 162 °C.
Under `CCN(CC)C(=O)Oc1nc(-c2ccccc2)cc2ccccc12` stands 81 °C; under `COC(=O)C1=C(C)NC(C(OC)OC)=C(C(=O)OC)C1c1cccc([N+](=O)[O-])c1` (stereo unspecified), 99 to 100 °C; under `COc1ccc(-c2noc(C(F)F)c2-c2ccc(S(N)(=O)=O)cc2)cc1`, 182 to 183 °C.
On to `O=C(O)CN1C(=O)C(=Cc2ccc(OCc3ccc(F)cc3F)c(OCc3ccccc3)c2)SC1=S`, for which the melting point lay within 236 to 239 °C.
Under `O=C(CCCN1CCN(c2ccccc2Cl)CC1)N1CCc2ccccc21` stands 119 to 121 °C; under `Cc1c(-c2cccc(OCc3ccccc3)c2)n(Cc2ccc(OCCN3CCCCC3)cc2)c2ccc(OCc3ccccc3)cc12`, 125 to 126 °C; under `O=C1CC(c2ccccc2Cl)Cc2nccc(Cl)c21` (stereo unspecified), 130 to 131 °C.
Under `CCc1nn2ccccc2c1C(C)=O` stands 108 to 112 °C; under `O=C(Cc1ccc(OCc2ccccc2)cc1OCc1ccccc1)N1CCN(Cc2ccccc2)CC1`, 104 to 106 °C.
`Nc1ncc2c(n1)-c1ccccc1C(c1ccccc1)=NC2` showed a melting point of 201 to 205 °C.
The same measure for `CCOC(=O)c1ccc(SCCCC2CCN(c3ccc(Cl)nn3)CC2)cc1`: 96.3 °C; for `CCN1C(=O)CCCc2cc(Nc3ncc(Cl)c(Nc4ccccc4C(=O)NC)n3)c(OC)cc21`: 232 to 233 °C.
